Measurements taken from patent US6545020B1, “Farnesyl Protein transferase inhibitors with in vivo radiosensitizing properties” (Janssen Pharmaceutica, N.V., priority 1998, dated 2003).

Columns and labels:
[1] = system: U251; test: Radiosensitization of radioresistant human glioma cell line U251 (surviving fraction after 2 Gy); type: cell-based; details: 0.4 nM, 48 h prior to irradiation (2 Gy)
Protocol: (§1) Radioresistant human glioma cell lines (SF763, U87, U251) were treated with compound 75, 48 h prior to irradiation (2 Gy). The dose administered was 0.4 nM for U251 and 2 nM for SF763 and U87.

[2] = system: U87; test: Radiosensitization of radioresistant human glioma cell line U87 (surviving fraction after 2 Gy); type: cell-based; details: 2 nM, 48 h prior to irradiation (2 Gy)
Protocol: as §1

[3] = system: LoVo human colon tumor cells; test: LoVo human colon tumor xenograft in athymic nude mice, oral treatment with or without single 7 Gy irradiation on day 32; type: in vivo
Text: Male athymic nude mice weighing approximately 22 to 25 g were inoculated subcutaneously in the inguinal region with 1×10^6 of LoVo human colon tumor cells (LoVo cells) on day 0. After three weeks to allow tumors to become established (diameter approximately 0.5 to 1 cm), treatment was started with solvent or compound 75 via the oral route, and either with or without a single shot irradiation on day 32. Parameters for activity were tumor growth rate and weight of the tumors at day 42.
Compound 75 was dissolved in water and acidified with 1 N HCl solution to pH 2.5 and administered orally (po) as 0.1 ml of compound solution per 10 g mouse body weight twice daily (bid). The dose administered was either 50 or 100 mg compound per kg bodyweight; treatment either preceded irradiation (days 22-32), followed irradiation (days 32-42) or continued throughout the duration of the experiment (days 22-42).
In each arm of the experiment 16 animals were included. The column ‘tumor (g)’ contains the median of the tumor weight of the animals sacrificed at day 42 of the experiment. FIGS. 1 and 2 represent the observed data in graphical form.

[4] = system: SF763; test: Radiosensitization of radioresistant human glioma cell line SF763 (surviving fraction after 2 Gy); type: cell-based; details: 2 nM, 48 h prior to irradiation (2 Gy)
Protocol: as §1

## Cn1cncc1[C@@](N)(c1ccc(Cl)cc1)c1ccc2c(c1)c(-c1cccc(Cl)c1)cc(=O)n2C [Compound 75, (+)-(R)-6-[amino(4-chlorophenyl)(1-methyl-1H-imidazol-5-yl)methyl]-4-(3-chloro-phenyl)-1-methyl-2(1H)-quinolinone]
[1]
  decrease of surviving fraction after irradiation: 25%
[2]
  decrease of surviving fraction after irradiation: about 55%
[3]; Group II, 50 mpk po bid, day 22-42, irradiation none
  tumor (g), median tumor weight at day 42: 0.255 g
[3]; Group III, 50 mpk po bid, day 22-32, irradiation none
  tumor (g), median tumor weight at day 42: 0.273 g
[3]; Group IV, 50 mpk po bid, day 32-42, irradiation none
  tumor (g), median tumor weight at day 42: 0.295 g
[3]; Group IX, 50 mpk po bid, day 22-32, irradiation 7 Gy on day 32
  tumor (g), median tumor weight at day 42: 0.156 g
[3]; Group V, 100 mpk po bid, day 22-42, irradiation none
  tumor (g), median tumor weight at day 42: 0.205 g
[3]; Group VI, 100 mpk po bid, day 22-32, irradiation none
  tumor (g), median tumor weight at day 42: 0.234 g
[3]; Group VII, 100 mpk po bid, day 32-42, irradiation none
  tumor (g), median tumor weight at day 42: 0.277 g
[3]; Group VIII, 50 mpk po bid, day 22-42, irradiation 7 Gy on day 32
  tumor (g), median tumor weight at day 42: 0.207 g
[3]; Group X, 50 mpk po bid, day 32-42, irradiation 7 Gy on day 32
  tumor (g), median tumor weight at day 42: 0.259 g
[3]; Group XI, 100 mpk po bid, day 22-42, irradiation 7 Gy on day 32
  tumor (g), median tumor weight at day 42: 0.164 g
[3]; Group XII, 100 mpk po bid, day 22-32, irradiation 7 Gy on day 32
  tumor (g), median tumor weight at day 42: 0.141 g
[3]; Group XIII, 100 mpk po bid, day 32-42, irradiation 7 Gy on day 32
  tumor (g), median tumor weight at day 42: 0.214 g
[3]; both 50 and 100 mpk
  effect of treatment on the effect of irradiation (statistical analysis): potentiates the effect of irradiation
[3]; pretreatment, both 50 and 100 mpk, plus irradiation
  effect of pretreatment and irradiation on tumor weight compared to irradiation alone: reduces tumor weight in a statistically significant manner
[4]
  decrease of surviving fraction after irradiation: about 55%
